Reference: US5962415A, “Compositions comprising a peptide inhibitor of nuclear protein translocation and an immunosuppressant and methods of use thereof” (Bristol-Myers Squibb Co., priority 1998, dated 1999)
Where a SMILES comes first, the peptide text is derived from it. Where no end group is shown, it is not given here. [ ]: non-standard residue; d: D form.

Key:
[1] = tested on: THP-1 human monocytic cells; experiment: LPS-stimulated cytokine (TNF-α, IL-8) production in THP-1 cells; assay type: cell-based; settings: 5 μM, 5 hr LPS stimulation, FIG. 4A
Experimental: Amounts of TNF-α, IL-6, IL-8 and IL-10 were determined using the ELISA kits obtained from Genzyme following the manufacturer's instructions.
THP-1 control cells were harvested, washed and set up in RPMI 1640, 10% fetal calf serum, at a concentration of 2.56×10^6 cells/ml. Phosphate buffered saline ("PBS") or one of the two respective polypeptides SV40MEM or SV40 (a peptide having only the SV40 large T antigen NLS sequence) were added to the cells at a concentration of 10 μM or 20 μM. The cells were then plated into a 96-well plate with 0.1 ml/well. The plate was then incubated for 2 hr at 37° C. in a 5% CO2 atmosphere. Following the initial incubation, media or a titration of LPS was added to each of the wells in a volume of 0.1 ml. Thus, the final concentrations of polypeptides were 5 μM or 10 μM. Following 5 hr of LPS stimulation, supernatants were taken and TNF-α and IL-8 levels were determined by ELISA. In addition, cells treated with PBS or polypeptides, but not incubated with LPS, were removed at the time of supernatant removal to determine the viability of the cells following 7 hr of contact with the polypeptides.
This experiment was conducted to compare the inhibitory effect of the SV40MEM polypeptide and other inhibitory polypeptides on LPS induction of cytokine production. THP-1 control cells (ATCC 9/95 stock) were harvested, washed and set up in RPMI 1640, 10% fetal calf serum as described in Example 2. The cells were incubated for 2 hr with PBS or (1) the FGF signal sequence, (2) a polypeptide having the FGF signal sequence and the NLS of NF-κB p50 on the carboxy terminus of the signal sequence, (3) the SV40MEM polypeptide comprised of L-amino acids, or (4) the SV40MEM polypeptide comprised of D-amino acids at a final concentration of 5 μM. The cells were then plated into a 96-well plate with 0.1 ml/well. The plate was then incubated for 2 hr at 37° C. in a 5% CO2 atmosphere. Following the initial incubation, media or a titration of LPS was added to each of the wells in a volume of 0.01 ml/well. Following 5 hr of LPS stimulation, supernatants were taken and TNF-α levels were determined by ELISA.

HIVLAI in Jurkat cells = experiment: Nuclear translocation of HIV genome in Jurkat cells infected with HIVLAI (gag and 2-LTR circle PCR); assay type: cell-based, HIV-1; settings: SV40MEM 0.1 and 1.0 μM, NF-κBMEM 10 μM, 24 hr
Experimental: (§1) HIV-1 M1 p24 levels were assayed using the procedures described in Smithgall et al (1995) AIDS Res. and Human Retrovirus 11:885. Proviral DNA content (gag) was measured using polymerase chain reaction analysis as described in Smithgall et al. (1995), supra.
2-LTR circles, a strictly nuclear form of HIV-1 DNA the expression of which indicates nuclear localization of the viral genome, was measured by as described in Bukrinsky et al (1991) Science 254:423.
Jurkat cells were incubated with the SV40MEM polypeptide for 3 hr with HIVLAI for 1-2 hr. The virus was washed out and the cultures supplemented with the appropriate inhibitor (SV40MEM, 0.1,μM and 1.0 μM; NF-κBMEM, 10 μM). After 24 hr, the cells were collected, lysed and evaluated for HIV-1 DNA by polymerase chain reaction analysis of gag sequences (see FIG. 8A) and 2-LTR circles (see FIG. 8B).

[2] = tested on: 70Z/3 murine leukemia pre-B cells; experiment: LPS-stimulated surface antigen expression (κ Ig light chain, IL-2 receptor, CD45) in 70Z/3 cells; assay type: cell-based; settings: for potency and efficacy of L- versus D-amino acid form, LPS-stimulated κ Ig expression: FIG. 3
Experimental: Expression of κ Ig, CD45, CD40, and the interleukin-2 receptor was assayed using standard enzyme-linked immunosorbent assays ("ELISAs") (see, Coligan et al. (eds.) (1991) Current Protocols in Immunology, Wiley & Sons, p. 2.10 or by FACS staining to measure cell-surface markers as described in Raff (1970) Immunology 19:637). Antibodies form cell surface markers were obtained from Pharmingen Co.
The effect of the SV40MEM polypeptide was compared with two additional polypeptides, […] (SEQ ID NO:2) (the "HIV-1MEM" polypeptide), which is composed of the membrane translocation domain of FGF flanked by the NLS from the HIV-1 matrix protein and […] (SEQ ID NO:3) (the "C-MYCMEM" polypeptide), which contains the NLS from the human c-myc oncoprotein (Chelsky et al. (1989), supra, and Dang et al. (1988), supra) using murine 70Z/3 pre-B cells.
Murine 70Z/3 cells (ATCC TlD-158) are a model cell line for analyzing the effects of compounds on B-cell differentiation. In response to S. typhosa LPS (Difco) or γ-interferon, these cells differentiate from surface κ immunoglobulin negative to κ Ig positive.
[…] of: (1) a peptide containing only the FGF signal sequence AAVALLPAVLLALLAP (SEQ ID NO:4) (the "MEM" peptide); (2) a polypeptide having the FGF signal sequence and the NLS of NF-κB p50 on the carboxy terminus of the signal sequence, namely, the NF-κBMEM polypeptide; (3) the SV40MEM polypeptide comprised of L-amino acids; or (4) the SV40MEM polypeptide comprised of D-amino acids. The cells were then incubated with LPS as described in Example 2 and assayed for expression of κ light chain expression.

Murine 70Z/3 B-cells = experiment: Proliferation of 70Z/3 murine B-cell leukemia cells; assay type: cell-based; settings: 0.2 μM (lowest concentration), 48 hr, FIG. 9
Experimental: Murine 70Z/3 B-cells were treated with 0, 0.2, 0.5, 1, or 2 μM […] prepared from D-amino acids. On day 0, the cell concentrations of the control and treated cells were the same. After 48 hr of exposure to the peptide, the treated cells were again counted and compared to control cells.

Human RAJI B-cells = experiment: Proliferation of RAJI human B-cell leukemia cells; assay type: cell-based; settings: 5 μM (lowest concentration), 48 hr, FIG. 10
Experimental: Human RAJI B-cells were treated with 0, 5, 10 or 25 μM SV40MEM prepared from D-amino acids. On day 0, the cell concentrations of the control and treated cells were the same. After 48 hr of exposure to the peptide, the treated cells were again counted and compared to control cells.

CD14 = experiment: LPS binding to CD14 (plate assay with soluble CD14 Ig); settings: E. coli AO16 LPS, 2 hours at 4° C., FIG. 14
Experimental: 96-well plates were coated with goat-anti human Ig, soluble CD-1 4 Ig was added, and the plates were incubated overnight at 4° C. The BMS polypeptide, the C-MYCMEM polypeptide, an SV40 NLS polypeptide containing a single SV40 large T-antigen NLS, a c-myc NLS without a translocation sequence (AKRVKL (SEQ ID NO:6)), a control non-NLS polypeptide, 377G, or PBS, were added to the plates and the plates were incubated for 5 min. E. coli AO16 LPS was then added to the plates and the plates were incubated for 2 hours at 4° C. The plates were washed and LPS was detected using 0.5 μg/ml mouse anti-E. coli LPS, followed by goat anti-mouse horseradish peroxidase.

HIV-1 primary isolate M1 = experiment: Infection of anti-CD3 activated PBMCs with HIV-1 primary isolate M1; assay type: cell-based; settings: seven days, compared to untreated but activated cultures
Experimental: as §1
PBMCs were obtained washed, cultured, and infected with HIV-1 as described in Dubrovsky et al. (1995) Mol. Med. 1:217-230). PBMCs from a seronegative donor were collected and depleted of CD8^+ T cells by negative selection. The cells were activated with an anti-CD3 monoclonal antibody prepared according to the method described in Wee et al. (1993) J. Exp. Med. 177:219 and incubated for 3 hr with the HIV-1MEM polypeptide. The cells were then incubated with M1 virus isolated from PBMC collected from HIV-infected donors in the presence of inhibitors for 2 hr. The virus was washed out, and the cultures supplemented with the appropriate inhibitor and allowed to incubate for seven days. Virus production was determined by measuring the p24 levels in the culture supernatant (FIG. 6B) and contrasted with the effect of the polypeptide on cell proliferation (FIG. 6A), which virus load was determined by polymerase chain reaction analysis of proviral DNA content (gag) (FIG. 6C). The MEM peptide represents the FGF membrane translocating portion of the HIV-1MEM polypeptide.

[3] = tested on: HIV-M1 virus in H9 human lymphoma T-cells; experiment: Infection of H9 T-cells with HIV-M1 virus (PCR of HIV-1 DNA); assay type: cell-based; settings: 2 μM, 4 hr preincubation, day 3, FIG. 7
Experimental: as §1
(§2) H9 and Jurkat cells were incubated with the HIV-1MEM polypeptide (2,μM) or the control MEM peptide for 4 hr prior to addition of HIV-M1 virus. Cells were harvested on day 3 following injection and the level of HIV-1 DNA evaluated by polymerase chain reaction.

[4] = tested on: HIV-M1 virus in Jurkat human leukemia T-cells; experiment: Infection of Jurkat T-cells with HIV-M1 virus (PCR of HIV-1 DNA); assay type: cell-based; settings: 2 μM, 4 hr preincubation, day 3, FIG. 7
Experimental: as §1, §2

## CSCC[C@H](NC(=O)[C@H](CC(C)C)NC(=O)[C@H](CCCCN)NC(=O)[C@H](CCC(N)=O)NC(=O)[C@H](CCCNC(=N)N)NC(=O)[C@H](CCCCN)NC(=O)[C@H](CCCNC(=N)N)NC(=O)[C@H](CCC(N)=O)NC(=O)[C@@H](NC(=O)[C@@H]1CCCN1C(=O)[C@H](C)NC(=O)[C@H](CC(C)C)NC(=O)[C@H](CC(C)C)NC(=O)[C@H](C)NC(=O)[C@H](CC(C)C)NC(=O)[C@H](CC(C)C)NC(=O)[C@@H](NC(=O)[C@H](C)NC(=O)[C@@H]1CCCN1C(=O)[C@H](CC(C)C)NC(=O)[C@H](CC(C)C)NC(=O)[C@H](C)NC(=O)[C@@H](NC(=O)[C@H](C)NC(=O)[C@H](C)N)C(C)C)C(C)C)C(C)C)C(=O)N1CCC[C@H]1C(N)=O [NF-κBMEM]
[1]
  LPS-induced TNF-α expression: did not significantly inhibit
HIVLAI in Jurkat cells; FIG. 8A
  viral internalization / virus entry (gag sequences): no effect
HIVLAI in Jurkat cells; FIG. 8B
  translocation of the viral genome into the nucleus (2-LTR circles): no effect

## CC(C)C[C@@H](NC(=O)[C@@H](C)NC(=O)[C@@H](CC(C)C)NC(=O)[C@@H](CC(C)C)NC(=O)[C@H](NC(=O)[C@@H](C)NC(=O)[C@H]1CCCN1C(=O)[C@@H](CC(C)C)NC(=O)[C@@H](CC(C)C)NC(=O)[C@@H](C)NC(=O)[C@H](NC(=O)[C@@H](C)NC(=O)[C@@H](C)NC(=O)[C@H](NC(=O)[C@@H](CCCCN)NC(=O)[C@@H](CCCNC(=N)N)NC(=O)[C@@H](CCCCN)NC(=O)[C@@H](CCCCN)NC(=O)[C@@H](CCCCN)NC(=O)[C@H]1CCCN1)C(C)C)C(C)C)C(C)C)C(=O)N[C@H](CC(C)C)C(=O)N[C@H](C)C(=O)N1CCC[C@@H]1C(=O)N[C@H](CCCCN)C(=O)N[C@H](CCCCN)C(=O)N[C@H](CCCCN)C(=O)N[C@H](CCCNC(=N)N)C(=O)N[C@H](CCCCN)C(=O)N[C@@H](C(=O)N[C@H](CS)C(N)=O)C(C)C [SV40MEM (D-amino acid form)] (H-[dP][dK][dK][dK][dR][dK][dV][dA][dA][dV][dA][dL][dL][dP][dA][dV][dL][dL][dA][dL][dL][dA][dP][dK][dK][dK][dR][dK][dV][dC]-NH2; N-terminus and C-terminus assumed)
[2]
  potency and efficacy of L- versus D-amino acid form, LPS-stimulated κ Ig expression: equally potent and efficacious
[2]; dose-response data, FIG. 1B
  efficacy at inhibiting κ Ig light chain production (comparison of three polypeptides): approximately equally efficacious
[1]
  LPS-induced TNF-α expression: significantly inhibited
Murine 70Z/3 B-cells
  proliferation (cell count versus control): inhibited
Human RAJI B-cells
  proliferation (cell count versus control): inhibited

## AKRVKL [c-myc NLS, reference compound]
CD14
  binding of LPS to CD14: did not block binding

## KKKYKAAVALLPAVLLALLAKKKYKC [HIV-1MEM, membrane translocation domain of FGF flanked by the NLS from the HIV-1 matrix protein]
[2]; dose-response data, FIG. 1B
  efficacy at inhibiting κ Ig light chain production (comparison of three polypeptides): approximately equally efficacious
  potency at inhibiting κ Ig light chain production compared with SV40MEM: not as potent
HIV-1 primary isolate M1; FIG. 6B
  virus production (p24 levels in culture supernatant): significantly reduced
HIV-1 primary isolate M1; FIG. 6C
  virus load (PCR of proviral DNA content, gag): significantly reduced
[3]
  infection (level of HIV-1 DNA by PCR): inhibited infection
[4]
  infection (level of HIV-1 DNA by PCR): inhibited infection

## PKKKRKVAAVALLPAVLLALLAPKKKRKVC-NH2 (C-terminus assumed) [SV40MEM (L-amino acid form)]
[2]
  potency and efficacy of L- versus D-amino acid form, LPS-stimulated κ Ig expression: equally potent and efficacious
[1]
  LPS-induced TNF-α expression: significantly inhibited
